# Reference: patent publication US12264173B2 (GILEAD SCIENCES, INC., priority 2020, dated 2025)
# Experiments:
# Format in all cases: cell-based
# [1] = test system: hMPV strain CAN99-81 (gr. A1); test: hMPV A1 EC50 in LLC-MK2 cells; conditions: read-out: hMPVA1 LLC-MK2 EC50
# Procedure: (§1) LLC-MK2 cells were seeded in 24-well plates at 90% confluence in MEM+10% FBS. Plates were washed with PBS and 500 μL of hMPV (strains CAN99-81 (gr. A1), CAN97-83 (gr. A2), CAN97-82 (B1) or CAN98-75 (gr. B2), containing 40 PFU/mL with the different dilutions of the 4 compounds were added on the cells for 1 h 30 min at 37° C., 5% CO2. After the adsorption period, the medium was removed and cells were washed with PBS. An overlay of Opti-MEM 2×+methycellulose 1.6% (1:1) containing the same concentrations of compounds as in the adsorption period was added to the wells. A positive control consisting of ribavirin was also tested with concentrations ranging from 1 μM to 100 μM. The plates were incubated at 37° C., 5% CO2 for 3-5 days. After the incubation period, the cells were fixed with 7% formalin for 1 h at room temperature. hMPV titers were determined using a Mab specific for the F protein (clone hMPV24, ABD Serotec, Inc.) diluted 1/10 000 and a second anti-mouse IgG HRP antibody (GeneScriptCorp) diluted 1/2500. Finally, KPL True Blue was used to reveal infected cells.
# [2] = test system: hMPV strain CAN97-82 (B1); test: hMPV B1 EC50 in LLC-MK2 cells; conditions: read-out: hMPVB1 LLC-MK2 EC50
# Procedure: as §1
# [3] = test system: hMPV strain CAN98-75 (gr. B2); test: hMPV B2 EC50 in LLC-MK2 cells; conditions: read-out: hMPVB2 LLC-MK2 EC50
# Procedure: as §1
# [4] = test system: hMPV strain CAN97-83 (gr. A2); test: hMPV A2 EC50 in LLC-MK2 cells; conditions: read-out: hMPVA2 LLC-MK2 EC50
# Procedure: as §1
smiles,measurement,setting,value
"COC(=O)[C@H](C)N[P@](=O)(OC[C@@]1(C#N)O[C@@H](c2ccc3c(N)ncnn23)[C@H](OC(=O)C(C)C)[C@@H]1OC(=O)C(C)C)Oc1ccccc1 (single isomer, unassigned) [Example 140]",EC50,[1],160 nM
same,EC50,[2],210 nM
same,EC50,[3],230 nM
same,EC50,[4],190 nM
